# Data reported in patent US20260248833A1, “PYRIMIDINE NUCLEOSIDE TREATMENTS” (The Children`s Medical Center Corporation, priority 2022, published 2026).
# Entries after “also recorded” stand apart in the source; their conditions may differ.
# Columns and labels:
# [1] = test system: K562 cells; assay: Terminal restriction fragment (TRF) Southern blot telomere length, K562 cells; format: cell-based, human
# Procedure: (§1) Cell culture: K562 cells (ATCC) were grown in RPMI1 1640 (Gibco) media supplemented with 10% fetal bovine serum. 293T cells (ATCC) were grown in DMEM (Gibco) supplemented with 10% fetal bovine serum, and were subcultured using 0.05% trypsin (Gibco). iPSCs were derived, characterized and cultured as previously described. iPSCs were grown in Essential 8 Media (Life Technologies) supplemented with the ROCK inhibitor Y271632 (Stem Cell Technologies) at 10 μM on plates coated with hES qualitied Matrigel matrix (Corning) and were subcultured using Accutase (Stem Cell Technologies).
# (§2) Terminal Restriction Fragment Length Analysis: genomic DNA was isolated from cells using the Invitrogen Purelink Genomic DNA mini kit (Invitrogen). 1-3 μg of gDNA was digested with RsaI and HinfI for 2-3 hrs at 37° C. and loaded onto a 0.6% agarose gel followed by Southern blotting using the Telotaggg Telomere Length Assay Kit (Roche). Quantification was performed using the WALTER webtool.
# [2] = test system: 293T cells; assay: Terminal restriction fragment (TRF) Southern blot telomere length, 293T cells; format: cell-based, human
# Procedure: as §1, §2
# [3] = test system: wild-type iPSCs; assay: Cell cycle analysis by DAPI staining and flow cytometry, iPSCs; format: cell-based, human; settings: 24 hours
# Procedure: (§3) Cell cycle analysis by DNA content staining and flow cytometry: Cells were prepared either for flow-FISH staining as described (for experiments in FIG. 5) or by ethanol fixation (for data in FIG. 6, 27), followed by rehydration and counterstaining using DAPI (BD Biosciences) and analysis on an LSR-II or Fortessa analyzer (BD Biosciences) using BD FACSDiva 8.0.2. Cells were gated on FSC/SSC as described in FIG. 6d using FlowJo V10.7.1.
# [4] = test system: super-telomerase cells (TERC-null 293T cells transfected with TERT and TERC); assay: Cell cycle analysis by DAPI staining and flow cytometry, super-telomerase cells; format: cell-based, human; settings: 40 μM dT
# Procedure: as §3
# [5] = test system: T-free super-telomerase expressing cells (293T TERC-null); assay: Slot blot of GGAAAG repeat content in cellular DNA; format: cell-based, human
# Procedure: Slot blotting: slot blotting was performed as described with minor modifications. Briefly, DNA concentration was normalized to 20 ng/μl using a nanodrop spectrophotometer. 3.3 μl of DNA was added to 16.5 μl of denaturation solution (0.5 M NaOH, 1.5 M NaCl) and heated to 55° C. for 30 minutes. 495 μl of neutralization solution (0.5 M Tris-HCl, 1.5 M NaCl) was added to denatured DNA and 156 μl of this solution was added in triplicate to different slots on a Bio-Dot SF Apparatus (Bio-Rad) and blotted onto Hybond N+ Membrane (Cytivia). Membrane preparation and washing was performed as described. For samples with paired GGTTAG and GGAAAG slot blots, the above recipe was doubled, and 156 μl was loaded onto parallel membranes in triplicate on each membrane. After blotting, membranes were hybridized and detected as described above for TRF Southern blots using the probe indicated in the figure. Blots were analyzed using ImageJ. Statistical analysis was performed using Graphpad prism V9.1.0.
# [6] = test system: primary fibroblasts; assay: Telomere lengthening from dT with TERT expression in primary fibroblasts; format: cell-based; settings: primary fibroblasts (FIG. 30A)
# [7] = test system: iPSCs derived from TBD patients; assay: TRF Southern blot telomere length, TBD patient-derived iPSCs; format: cell-based, human; settings: for telomere length increase / telomere elongation: 50 μM dT for three weeks; for telomere elongation: panel of TBD patient iPSCs (TERC, DKC1, PARN)
# Procedure: as §1, §2
# [8] = test system: TERC-null 293T cells; assay: TRF Southern blot telomere length, telomerase-negative TERC-null 293T cells; format: cell-based, human; settings: 100 μM thymidine for 7 days
# Procedure: as §1, §2
# [9] = test system: super-telomerase cells (TERC-null 293T cells transfected with TERT and TERC); assay: TRF Southern blot telomere synthesis in super-telomerase cells; format: cell-based, human
# Procedure: as §2
# dT supplementation increases levels of dTTP and can reduce dCTP levels, leading to replication stress at high doses. Because replication stress signaling has been implicated in telomerase biology we asked whether replication stress induction explained the telomere length increases seen with dT treatment. We first tested whether telomere elongation is a universal response to replication stress-inducing compounds. […] However, cytotoxicity limited our ability to apply higher doses of replication stress-inducing compounds for time periods long enough to study telomere length changes. […] Using this system, we next asked how high-dose treatment with replication stress-inducing agents such as aphidicolin, hydroxyurea, and the TYMS inhibitor 5FU influence telomere synthesis compared to dT.
# [10] = test system: 293T cells; assay: Polar metabolite profiling by LC-MS of dT treated 293T cells; format: cell-based, human
# Procedure: Liquid Chromatography-Mass Spectrometry: extraction of and quantification of polar metabolites was performed as described using HPLC grade methanol (Fisher Scientific). If a given species was detected in multiple ion modes, the mode with the highest average signal in the untreated cells was used for analysis.
# [11] = test system: human HSPCs; assay: TRF telomere length of HSPCs; format: cell-based; settings: HSPCs treated with dT for 7 days (FIG. 19)
# Procedure: as §2
# [12] = test system: 293T cells; assay: Cell growth curves by hemocytometry, 293T cells; format: cell-based
# Procedure: Quantification of cell growth was performed using hemocytometry with trypan blue staining to identify dead cells. For growth curves, 50k cells were plated per 12 well or 100k cells were plated per 6 well and cells were passaged when confluent, counted using a hemocytometer, and replated at equal numbers in fresh media.
# [13] = test system: K562 cells; assay: Cell cycle analysis by DAPI staining and flow cytometry, K562 cells; format: cell-based, human
# Procedure: as §3
# [14] = increasing doses of dT (FIG. 8a)
smiles,measurement,setting,value
"Cc1cn([C@H]2C[C@H](O)[C@@H](CO)O2)c(=O)[nH]c1=O [dT, 1-[(2R,4S,5R)-4-Hydroxy-5-(hydroxymethyl)oxolan-2-yl]-5-methylpyrimidine-2,4 (1H,3H)-dione]",thymidine doses driving robust telomere length increases,[1]; 34 days of culture in low dose thymidine (FIGS. 2L and 2N),≥ 5 µM
same,doses leading to robust telomere elongation in less than 10 days,[1]; K562 cells,≥ 50 µM
same,telomere length,"[1]; K562 cells, 100 μM of the indicated deoxynucleoside(s) for 8 days","rapidly and robustly increases telomere length; also recorded: promoted telomere lengthening, as did dT alone"
same,telomere lengthening following dT with dNTPase-deficient SAMHD1 H215A or K312A variants,"[1]; K562 cells, 10 days",could not restrict telomere lengthening following dT supplementation
same,telomere lengthening following dT treatment with overexpression of wild-type SAMHD1,"[1]; K562 cells, 10 days, compared to EGFP control",reduced telomere lengthening following dT treatment
same,lowest dT dose giving robust telomere lengthening without growth change,"[1]; K562 cells, 34 days",≥ 5 µM
same,telomere lengthening upon dT treatment in TK1-edited cells,"[1]; K562 cells, CRISPR/Cas9 TK1 edited, 10 days",complete abrogation of the telomere lengthening
same,telomere lengthening upon dT treatment in TK2-edited cells,"[1]; K562 cells, CRISPR/Cas9 TK2 edited, 10 days",no difference in telomere length increases compared to control AAVS1-targeted cells
same,"telomere elongation, increase of base pairs (bp) per day","[1]; K562 cells, at 100 μM dT",204 bp per day
same,"telomere elongation, increase of base pairs (bp) per day","[1]; K562 cells, at […] dT",132 bp per day
same,telomere lengthening in TYMS-knockout cells,"[1]; K562 cells, baseline 16 μM dT, plus 100 μM additional dT or 1 mM dU, 10 days",responsive to dT to promote telomere lengthening
same,doses leading to robust telomere elongation in less than 10 days,[2],≥ 50 µM
same,telomere lengthening from dT treatment,"[2]; 50 μM dT for eight days, without SAMHD1 knockdown",~ 470 bp
same,telomere elongation after withdrawal of dT,[2]; 100 μM dT withdrawn after 15 days,aborted telomere elongation
same,"telomere length, time-course of dT treatment","[2]; 100 μM dT, over 33 days",gradually and continually increased telomere length
same,telomere length,[2]; 100 μM of the indicated deoxynucleoside(s) for 9 days,"rapidly and robustly increases telomere length; also recorded: promoted telomere lengthening, as did dT alone; also recorded: necessary and sufficient for telomere lengthening"
same,telomere length,"[2]; 20 or 40 μM dT, 10 days",minimal telomere length changes
same,telomere length,"[2]; 20 or 40 μM dT, 34 days",robust telomere lengthening
same,persistence of long telomere length after dT withdrawal,[2]; 100 micromolar thymidine for 15 days then removed,more than two weeks
same,telomere lengthening following dT with dNTPase-deficient SAMHD1 H215A or K312A variants,[2]; 10 days,could not restrict telomere lengthening following dT supplementation
same,telomere lengthening following dT treatment with overexpression of wild-type SAMHD1,"[2]; 10 days, compared to EGFP control",reduced telomere lengthening following dT treatment
same,telomere elongation with dT from different manufacturers,"[2]; 10 days, three manufacturers, each of >98% purity",resulted in telomere elongation similarly
same,telomere lengthening upon dT treatment in TK1-edited cells,[2]; CRISPR/Cas9 TK1 edited,complete abrogation of the telomere lengthening; also recorded: prevented telomere lengthening following dT treatment
same,telomere lengthening upon dT treatment in TK2-edited cells,[2]; CRISPR/Cas9 TK2 edited,no difference in telomere length increases compared to control AAVS1-targeted cells; also recorded: TK2 knockout did not
same,"telomere lengthening, combined SAMHD1 knockdown and dT treatment","[2]; SAMHD1 targeting shRNA, 50 μM dT for eight days",~ 800 bp
same,"telomere elongation, increase of base pairs (bp) per day",[2]; at 100 μM dT,96 bp per day
same,"telomere elongation, increase of base pairs (bp) per day",[2]; at […] dT,60 bp per day
same,telomere lengthening in TYMS-knockout cells,"[2]; baseline 16 μM dT, plus 100 μM additional dT or 1 mM dU, 10 days",responsive to dT to promote telomere lengthening
same,dT doses with minimal effects on cell cycle progression,[3],≤ 50 µM
same,cell cycle progression at the telomere-active dose,[4],below those that significantly impacted cell cycle progression
same,GGAAAG repeat content,"[5]; 100 μM dT, 30 hours, wild-type versus T-free super-telomerase",an increase in GGAAAG repeat content exclusively in cells expressing T-free telomerase; also recorded: enhanced repeat synthesis by telomerase
same,rescue of GGAAAG repeat synthesis following 5FU treatment,[5]; dT with 5FU,could rescue the inhibition of GGAAAG repeat synthesis following 5FU treatment; also recorded: rescued by dT supplementation
same,telomere lengthening from dT with expression of TERT,[6],expression of TERT can increase telomere lengthening from dT
same,telomere length increase,[7]; PARN deficient iPSCs,570 bp
same,telomere length,"[7]; TBD patient-derived iPSCs with two different mutations, 100 μM dT for 22 days (FIG. 13A)",increased telomere length
same,telomere length increase,[7]; TERC deficient iPSCs,640 bp
same,telomere elongation,[7],produced telomere elongation in all cases
same,telomere elongation,[7]; listed as thymidine,hundreds of basepairs
same,telomere length,[8],failed to drive detectable telomere elongation
same,dose at which increased telomere repeat synthesis could be observed,[9]; 30 hours,40 µM
same,rescue of telomere synthesis following 5FU treatment,[9]; dT supplementation with maximal doses of 5FU,restored telomere elongation despite maximal doses of 5FU; also recorded: fully rescued telomere synthesis
same,maximal rate of telomere elongation,"[9]; high-dose dT treatment, 30 hours, baseline 103 bp/hour",625 bp/hour
same,telomere repeat synthesis / telomere elongation by telomerase,[9]; treatment for 30 hours,robustly increased telomere repeat synthesis in a dose-responsive and telomerase-dependent manner
same,dTDP levels,[10]; 100 μM dT,fourfold
same,levels of dTTP compared to vehicle,[10]; 100 μM dT,four-fold
same,"levels of dTMP, dTDP and dTTP",[10]; 100 μM dT for 24 hours,"increases levels of dTMP, dTDP and dTTP"
same,telomere length,[11],lengthens telomeres in human HSPCs after just 7 days
same,cellular growth,"[12]; 20 or 40 μM dT, 34 days",undetectable changes in cellular growth curves; also recorded: undetectable impact on cellular growth
same,dose at which inhibition of growth was detected,[12]; [14],≥ 50 µM
same,doses at which growth was minimally impacted,[12]; [14],below 100 μM
same,dT doses with no detectable changes in cell cycle distribution,[13],below 12.5 μM
